{"source": "ChEMBL document CHEMBL1146870", "about": "“N-Tetrahydroquinolinyl, N-quinolinyl and N-isoquinolinyl biaryl carboxamides as antagonists of TRPV1” (Bioorg Med Chem Lett, 2006)", "key": {"[1]": {"biological_target": "T1, Transient receptor potential cation channel subfamily V member 1 (Homo sapiens, UniProt Q8NER1)", "T1 sequence (Q8NER1 whole entry)": "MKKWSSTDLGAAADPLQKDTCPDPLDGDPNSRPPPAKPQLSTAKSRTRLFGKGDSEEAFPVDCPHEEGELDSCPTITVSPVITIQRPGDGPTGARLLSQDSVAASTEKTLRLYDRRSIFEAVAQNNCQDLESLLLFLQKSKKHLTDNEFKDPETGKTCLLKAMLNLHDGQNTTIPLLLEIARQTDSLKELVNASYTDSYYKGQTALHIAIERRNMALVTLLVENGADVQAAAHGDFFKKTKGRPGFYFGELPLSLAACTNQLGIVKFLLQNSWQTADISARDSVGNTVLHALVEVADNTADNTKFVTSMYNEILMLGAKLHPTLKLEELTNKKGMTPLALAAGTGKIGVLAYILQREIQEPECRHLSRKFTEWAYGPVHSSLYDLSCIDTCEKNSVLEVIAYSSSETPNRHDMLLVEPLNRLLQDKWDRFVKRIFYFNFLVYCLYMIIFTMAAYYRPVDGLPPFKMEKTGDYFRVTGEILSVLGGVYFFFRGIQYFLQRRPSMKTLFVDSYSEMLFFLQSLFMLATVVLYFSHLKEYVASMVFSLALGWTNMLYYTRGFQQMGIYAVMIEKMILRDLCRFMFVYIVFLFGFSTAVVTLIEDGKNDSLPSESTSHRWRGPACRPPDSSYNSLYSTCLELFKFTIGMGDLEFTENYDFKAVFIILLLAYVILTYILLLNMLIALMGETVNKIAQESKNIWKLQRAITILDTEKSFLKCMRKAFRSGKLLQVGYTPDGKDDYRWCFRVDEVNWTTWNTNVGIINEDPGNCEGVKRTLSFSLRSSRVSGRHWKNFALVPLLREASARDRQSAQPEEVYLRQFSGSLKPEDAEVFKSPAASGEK", "assay": "Antagonist activity against human TRPV1 assessed as inhibition of capsaicin-induced calcium influx by FLIPR assay", "format": "functional"}, "Homo sapiens": {"organism": "Homo sapiens", "assay": "Intrinsic clearance in human liver microsomes", "format": "ADME, Microsome"}, "[2]": {"biological_target": "T1, Transient receptor potential cation channel subfamily V member 1", "assay": "Antagonist activity against human TRPV1 assessed as inhibition of acid-induced calcium influx by FLIPR assay", "format": "functional"}, "[3]": {"biological_target": "Transient receptor potential cation channel subfamily V member 1 (Rattus norvegicus, UniProt O35433)", "sequence (O35433 whole entry)": "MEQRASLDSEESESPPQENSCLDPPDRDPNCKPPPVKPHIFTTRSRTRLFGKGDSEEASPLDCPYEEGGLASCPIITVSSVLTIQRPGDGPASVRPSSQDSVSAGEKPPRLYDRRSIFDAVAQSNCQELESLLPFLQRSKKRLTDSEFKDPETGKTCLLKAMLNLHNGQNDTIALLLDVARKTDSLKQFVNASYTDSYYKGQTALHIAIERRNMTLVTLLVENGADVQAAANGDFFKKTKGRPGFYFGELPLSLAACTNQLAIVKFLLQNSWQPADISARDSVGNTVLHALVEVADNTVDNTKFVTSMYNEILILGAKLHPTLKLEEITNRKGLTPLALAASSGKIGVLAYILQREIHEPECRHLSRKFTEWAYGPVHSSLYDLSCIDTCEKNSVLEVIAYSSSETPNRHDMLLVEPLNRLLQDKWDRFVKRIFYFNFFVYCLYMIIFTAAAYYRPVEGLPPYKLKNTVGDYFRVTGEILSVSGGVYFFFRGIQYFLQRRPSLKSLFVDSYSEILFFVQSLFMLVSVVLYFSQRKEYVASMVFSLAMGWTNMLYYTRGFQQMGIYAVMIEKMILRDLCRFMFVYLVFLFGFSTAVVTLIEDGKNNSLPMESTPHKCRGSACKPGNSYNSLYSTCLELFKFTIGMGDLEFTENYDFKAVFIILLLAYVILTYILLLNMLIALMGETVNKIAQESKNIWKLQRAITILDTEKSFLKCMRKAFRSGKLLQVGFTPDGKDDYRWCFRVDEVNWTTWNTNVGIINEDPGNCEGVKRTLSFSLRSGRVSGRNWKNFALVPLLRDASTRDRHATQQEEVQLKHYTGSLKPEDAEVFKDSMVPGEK", "assay": "Antagonist activity against rat TRPV1 assessed as inhibition of acid-induced calcium influx by FLIPR assay", "format": "functional"}, "Cytochrome P450 2C9": {"biological_target": "Cytochrome P450 2C9 (Homo sapiens, UniProt P11712)", "sequence (P11712 whole entry)": "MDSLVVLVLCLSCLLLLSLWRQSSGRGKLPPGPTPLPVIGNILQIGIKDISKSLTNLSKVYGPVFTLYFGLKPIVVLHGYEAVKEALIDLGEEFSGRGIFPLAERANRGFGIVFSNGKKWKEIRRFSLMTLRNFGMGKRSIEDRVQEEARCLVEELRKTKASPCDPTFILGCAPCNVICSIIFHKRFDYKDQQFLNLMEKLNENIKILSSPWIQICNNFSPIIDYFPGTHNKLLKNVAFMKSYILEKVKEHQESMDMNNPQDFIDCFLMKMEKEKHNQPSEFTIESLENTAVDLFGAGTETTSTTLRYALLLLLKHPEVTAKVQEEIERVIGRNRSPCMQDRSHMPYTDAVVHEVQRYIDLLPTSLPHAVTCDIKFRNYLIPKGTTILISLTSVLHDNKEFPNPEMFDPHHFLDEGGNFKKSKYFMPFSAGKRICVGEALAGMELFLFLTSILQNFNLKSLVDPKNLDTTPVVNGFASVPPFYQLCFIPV", "assay": "Inhibition of cytochrome P450 2C9", "format": "ADME"}, "Cytochrome P450 2C19": {"biological_target": "Cytochrome P450 2C19 (Homo sapiens, UniProt P33261)", "sequence (P33261 whole entry)": "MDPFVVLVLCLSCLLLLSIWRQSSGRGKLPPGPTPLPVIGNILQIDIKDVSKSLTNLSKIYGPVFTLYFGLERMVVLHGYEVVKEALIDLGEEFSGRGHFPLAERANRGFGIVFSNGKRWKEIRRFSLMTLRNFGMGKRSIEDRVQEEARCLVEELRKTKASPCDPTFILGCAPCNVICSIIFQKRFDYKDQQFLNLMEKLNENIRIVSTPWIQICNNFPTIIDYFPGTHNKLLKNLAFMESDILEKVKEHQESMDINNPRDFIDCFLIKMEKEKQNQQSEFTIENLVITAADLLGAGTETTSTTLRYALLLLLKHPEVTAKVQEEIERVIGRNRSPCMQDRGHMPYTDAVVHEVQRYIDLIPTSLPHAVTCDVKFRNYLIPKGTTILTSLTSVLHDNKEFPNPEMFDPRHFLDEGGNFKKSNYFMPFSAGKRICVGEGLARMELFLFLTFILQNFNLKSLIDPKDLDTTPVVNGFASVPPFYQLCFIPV", "assay": "Inhibition of cytochrome P450 2C19", "format": "ADME"}, "Cytochrome P450 2D6": {"biological_target": "Cytochrome P450 2D6 (Homo sapiens, UniProt P10635)", "sequence (P10635 whole entry)": "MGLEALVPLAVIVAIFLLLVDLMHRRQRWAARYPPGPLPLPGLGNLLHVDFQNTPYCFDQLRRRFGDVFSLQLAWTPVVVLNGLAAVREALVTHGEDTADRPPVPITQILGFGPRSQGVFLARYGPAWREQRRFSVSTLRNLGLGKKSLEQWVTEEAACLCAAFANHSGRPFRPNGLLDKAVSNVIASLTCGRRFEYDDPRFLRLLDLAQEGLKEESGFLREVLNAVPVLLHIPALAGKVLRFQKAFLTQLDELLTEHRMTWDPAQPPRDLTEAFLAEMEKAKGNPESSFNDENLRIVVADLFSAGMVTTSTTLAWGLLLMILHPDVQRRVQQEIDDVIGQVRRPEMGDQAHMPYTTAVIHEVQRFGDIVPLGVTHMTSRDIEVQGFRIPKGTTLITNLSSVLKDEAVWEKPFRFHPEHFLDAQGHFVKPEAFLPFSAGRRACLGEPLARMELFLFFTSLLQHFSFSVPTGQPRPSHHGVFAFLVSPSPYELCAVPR", "assay": "Inhibition of cytochrome P450 2D6", "format": "ADME"}, "Cytochrome P450 3A4": {"biological_target": "Cytochrome P450 3A4 (Homo sapiens, UniProt P08684)", "sequence (P08684 whole entry)": "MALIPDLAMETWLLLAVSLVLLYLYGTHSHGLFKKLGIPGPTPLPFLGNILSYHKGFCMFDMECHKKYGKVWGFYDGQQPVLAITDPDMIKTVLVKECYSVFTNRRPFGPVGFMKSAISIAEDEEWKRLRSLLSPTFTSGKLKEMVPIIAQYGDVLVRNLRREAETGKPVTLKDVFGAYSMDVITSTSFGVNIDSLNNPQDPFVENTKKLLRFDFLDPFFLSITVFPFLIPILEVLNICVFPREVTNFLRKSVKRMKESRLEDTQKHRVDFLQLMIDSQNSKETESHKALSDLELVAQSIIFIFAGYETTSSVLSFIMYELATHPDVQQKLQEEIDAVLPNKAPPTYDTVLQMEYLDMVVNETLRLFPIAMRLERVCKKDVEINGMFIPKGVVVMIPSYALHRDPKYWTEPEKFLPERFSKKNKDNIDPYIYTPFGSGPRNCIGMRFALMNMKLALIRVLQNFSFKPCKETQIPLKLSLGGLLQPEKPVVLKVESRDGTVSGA", "assay": "Inhibition of cytochrome P450 3A4", "format": "ADME"}, "Cytochrome P450 1A2": {"biological_target": "T2, Cytochrome P450 1A2 (Homo sapiens, UniProt P05177)", "T2 sequence (P05177 whole entry)": "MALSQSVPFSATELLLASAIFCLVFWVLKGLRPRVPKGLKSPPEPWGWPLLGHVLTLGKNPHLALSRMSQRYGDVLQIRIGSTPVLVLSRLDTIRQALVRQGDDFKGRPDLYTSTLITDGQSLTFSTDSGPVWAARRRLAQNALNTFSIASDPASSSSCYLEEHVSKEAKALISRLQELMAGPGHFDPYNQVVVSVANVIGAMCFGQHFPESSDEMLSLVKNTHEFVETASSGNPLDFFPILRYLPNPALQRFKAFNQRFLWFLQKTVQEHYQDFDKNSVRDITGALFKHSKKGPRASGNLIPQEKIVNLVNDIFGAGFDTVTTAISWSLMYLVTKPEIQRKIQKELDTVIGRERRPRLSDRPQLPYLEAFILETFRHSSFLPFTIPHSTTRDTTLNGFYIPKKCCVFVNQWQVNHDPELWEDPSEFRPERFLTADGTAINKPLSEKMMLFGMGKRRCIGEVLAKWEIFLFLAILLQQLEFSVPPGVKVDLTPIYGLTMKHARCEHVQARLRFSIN", "assay": "Inhibition of cytochrome P450 1A2", "format": "ADME"}, "Cavia porcellus": {"tested_on": "Cavia porcellus", "assay": "Inhibition of Freund's complete adjuvant-induced inflammatory hyperalgesia in guinea pig at 30 mg/kg, sc", "format": "functional", "settings": "route subcutaneous"}, "[4]": {"biological_target": "Transient receptor potential cation channel subfamily V member 1 (Rattus norvegicus) (UniProt O35433)", "sequence (O35433 whole entry)": "as the sequence (O35433 whole entry) above", "description": "Antagonist activity against rat TRPV1 assessed as inhibition of capsaicin-induced calcium influx by FLIPR assay"}, "[5]": {"biological_target": "Transient receptor potential cation channel subfamily V member 1 (Cavia porcellus) (UniProt Q6R5A3)", "sequence (Q6R5A3 whole entry)": "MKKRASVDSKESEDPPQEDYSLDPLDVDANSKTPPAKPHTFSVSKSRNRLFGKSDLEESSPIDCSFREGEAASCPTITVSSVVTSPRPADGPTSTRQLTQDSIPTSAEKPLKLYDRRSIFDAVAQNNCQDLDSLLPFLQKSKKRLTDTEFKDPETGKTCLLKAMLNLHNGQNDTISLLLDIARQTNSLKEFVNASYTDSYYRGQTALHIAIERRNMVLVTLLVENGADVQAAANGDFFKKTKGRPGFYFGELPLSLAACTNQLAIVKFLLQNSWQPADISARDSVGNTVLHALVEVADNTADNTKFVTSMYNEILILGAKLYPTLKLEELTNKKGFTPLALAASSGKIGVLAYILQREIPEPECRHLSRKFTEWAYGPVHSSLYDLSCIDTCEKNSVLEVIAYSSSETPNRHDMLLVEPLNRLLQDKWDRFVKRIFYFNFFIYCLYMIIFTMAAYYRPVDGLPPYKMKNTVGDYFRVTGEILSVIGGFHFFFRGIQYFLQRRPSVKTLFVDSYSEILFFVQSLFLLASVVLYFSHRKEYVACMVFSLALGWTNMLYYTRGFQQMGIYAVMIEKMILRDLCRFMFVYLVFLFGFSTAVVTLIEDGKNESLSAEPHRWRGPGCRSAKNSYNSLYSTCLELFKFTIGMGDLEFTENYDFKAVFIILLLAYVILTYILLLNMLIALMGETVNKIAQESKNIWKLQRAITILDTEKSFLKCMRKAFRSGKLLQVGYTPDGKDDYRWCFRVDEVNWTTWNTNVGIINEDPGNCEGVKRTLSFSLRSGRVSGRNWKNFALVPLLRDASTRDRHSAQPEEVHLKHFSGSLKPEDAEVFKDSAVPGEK", "description": "Antagonist activity against guinea pig TRPV1 assessed as inhibition of capsaicin-induced calcium influx by FLIPR assay"}}}
{"smiles": "O=C(Nc1cccc2cccnc12)c1ccc(-c2ccccc2)cc1", "values": [{"measurement": "pKb", "setting": "[1]", "value": "< 6.5"}]}
{"smiles": "O=C(Nc1ccc2ccc(O)nc2c1)c1ccc(-c2ccccc2)cc1", "values": [{"measurement": "pKb", "setting": "[1]", "value": 8.5}]}
{"smiles": "COCC(=O)N1CCCc2ccc(NC(=O)c3ccc(-c4ccccc4)cc3)cc21", "values": [{"measurement": "pKb", "setting": "[1]", "value": 7.2}]}
{"smiles": "CN1CCCc2ccc(NC(=O)c3ccc(-c4cccs4)cc3)cc21", "values": [{"measurement": "pKb", "setting": "[1]", "value": 7.6}]}
{"smiles": "CN1CCCc2ccc(NC(=O)c3cnc(-c4ccccc4)cn3)cc21", "values": [{"measurement": "pKb", "setting": "[1]", "value": "< 6.8"}]}
{"smiles": "CN1CCCc2ccc(NC(=O)c3ccccc3-c3ccccc3)cc21", "values": [{"measurement": "pKb", "setting": "[1]", "value": "< 6.6"}]}
{"smiles": "O=C(Nc1cccc2ncccc12)c1ccc(-c2ccccc2)cc1", "values": [{"measurement": "pKb", "setting": "[1]", "value": "< 6.5"}]}
{"smiles": "CC(=O)c1cccc(-c2ccc(C(=O)Nc3ccc4c(c3)N(C)CCC4)cc2)c1", "values": [{"measurement": "pKb", "setting": "[1]", "value": 7}]}
{"smiles": "CN1CCCc2ccc(NC(=O)c3ccc(-c4ccccc4)s3)cc21", "values": [{"measurement": "pKb", "setting": "[1]", "value": 7}]}
{"smiles": "O=C(Nc1ccc2cccnc2c1)c1ccc(-c2ccccc2)cc1", "values": [{"measurement": "pKb", "setting": "[1]", "value": 9.4}]}
{"smiles": "O=C(Nc1ccc2ncccc2c1)c1ccc(-c2ccccc2)cc1", "values": [{"measurement": "pKb", "setting": "[1]", "value": 6.9}]}
{"smiles": "COCCN1CCCc2ccc(NC(=O)c3ccc(-c4ccccc4)cc3)cc21", "values": [{"measurement": "pKb", "setting": "[1]", "value": 7.3}]}
{"smiles": "CN1CCCc2c(NC(=O)c3ccc(-c4ccccc4)cc3)cccc21", "values": [{"measurement": "pKb", "setting": "[1]", "value": "< 6.5"}]}
{"smiles": "CN(C)CCN1CCCc2ccc(NC(=O)c3ccc(-c4ccccc4)cc3)cc21", "values": [{"measurement": "pKb", "setting": "[1]", "value": 7.4}]}
{"smiles": "CC(=O)N1CCCc2ccc(NC(=O)c3ccc(-c4ccccc4)cc3)cc21", "values": [{"measurement": "pKb", "setting": "[1]", "value": 7.2}]}
{"smiles": "CN1CCCc2ccc(NC(=O)c3ccc(-c4ccsc4)cc3)cc21", "values": [{"measurement": "pKb", "setting": "[1]", "value": 7.8}]}
{"smiles": "CNS(=O)(=O)c1cccc(-c2ccc(C(=O)Nc3ccc4c(c3)N(C)CCC4)cc2)c1", "values": [{"measurement": "pKb", "setting": "[1]", "value": 7}]}
{"smiles": "CN1CCCc2ccc(NC(=O)c3ccc(-c4ccccc4)cc3)cc21", "values": [{"measurement": "pKb", "setting": "[1]", "value": 7.5}, {"measurement": "CL", "setting": "Homo sapiens", "value": 7, "unit": "mL/min/g"}]}
{"smiles": "O=C(Nc1ccc2c(c1)NCCC2)c1ccc(-c2ccccc2)cc1", "values": [{"measurement": "pKb", "setting": "[1]", "value": 7.7}]}
{"smiles": "CN1CCCc2ccc(NC(=O)c3ccc(-n4cccn4)cc3)cc21", "values": [{"measurement": "pKb", "setting": "[1]", "value": 6.9}]}
{"smiles": "Cc1ccc2ccc(NC(=O)c3ccc(-c4ccccc4)cc3)cc2n1", "values": [{"measurement": "pKb", "setting": "[1]", "value": 8}]}
{"smiles": "CN1CCCc2ccc(NC(=O)c3cccc(-c4ccccc4)c3)cc21", "values": [{"measurement": "pKb", "setting": "[1]", "value": "< 6.8"}]}
{"smiles": "CN1CCCc2ccc(NC(=O)c3ccc(-c4ccccc4)nc3)cc21", "values": [{"measurement": "pKb", "setting": "[1]", "value": 7.8}, {"measurement": "CL", "setting": "Homo sapiens", "value": 4, "unit": "mL/min/g"}]}
{"smiles": "CN1CCCc2ccc(NC(=O)c3ccc(-c4ccccc4)cc3Cl)cc21", "values": [{"measurement": "pKb", "setting": "[1]", "value": 7.1}]}
{"smiles": "CC(=O)NCCN1CCCc2ccc(NC(=O)c3ccc(-c4ccccc4)cc3)cc21", "values": [{"measurement": "pKb", "setting": "[1]", "value": 6.9}]}
{"smiles": "CN1CCCc2ccc(NC(=O)c3ccc(-c4cncnc4)cc3)cc21", "values": [{"measurement": "pKb", "setting": "[1]", "value": 6.9}]}
{"smiles": "CN1CCCc2cc(NC(=O)c3ccc(-c4ccccc4)cc3)ccc21", "values": [{"measurement": "pKb", "setting": "[1]", "value": 7.1}]}
{"smiles": "CN1CCCc2cccc(NC(=O)c3ccc(-c4ccccc4)cc3)c21", "values": [{"measurement": "pKb", "setting": "[1]", "value": "< 6.3"}]}
{"smiles": "O=C(Nc1ccc2cnccc2c1)c1ccc(-c2ccccc2)cc1", "values": [{"measurement": "pKb", "setting": "[1]", "value": 7.7}]}
{"smiles": "O=C(Nc1cccc2cnccc12)c1ccc(-c2ccccc2)cc1", "values": [{"measurement": "pKb", "setting": "[1]", "value": 7.7}]}
{"smiles": "CN1CCCc2ccc(NC(=O)c3ccc(-c4cnccn4)cc3)cc21", "values": [{"measurement": "pKb", "setting": "[1]", "value": 7.1}]}
{"smiles": "CN(C)C(=O)c1ccc(-c2ccc(C(=O)Nc3ccc4c(c3)N(C)CCC4)cc2)cc1", "values": [{"measurement": "pKb", "setting": "[1]", "value": 7.1}]}
{"smiles": "Cc1cc(C(=O)Nc2ccc3c(c2)N(C)CCC3)ccc1-c1ccccc1", "values": [{"measurement": "pKb", "setting": "[1]", "value": 7.4}]}
{"smiles": "O=C(Nc1ccc2cccnc2c1)c1ccc(-c2ccccc2)nc1", "values": [{"measurement": "IC50", "setting": "[2]", "value": 0.00794, "unit": "µM"}, {"measurement": "IC50", "setting": "[3]", "value": 0.0251, "unit": "µM"}, {"measurement": "CL", "setting": "Homo sapiens", "value": "< 5", "unit": "mL/min/g"}, {"measurement": "IC50", "setting": "Cytochrome P450 2C9", "value": "> 18", "unit": "µM"}, {"measurement": "IC50", "setting": "Cytochrome P450 2C19", "value": "> 18", "unit": "µM"}, {"measurement": "IC50", "setting": "Cytochrome P450 2D6", "value": "> 18", "unit": "µM"}, {"measurement": "IC50", "setting": "Cytochrome P450 3A4", "value": "> 18", "unit": "µM"}, {"measurement": "IC50", "setting": "Cytochrome P450 1A2", "value": "> 18", "unit": "µM"}, {"measurement": "inhibition in vivo at 30 mg/kg", "setting": "Cavia porcellus", "value": 32, "unit": "%"}, {"measurement": "pKb", "setting": "[4]", "value": 8.4}, {"measurement": "pKb", "setting": "[5]", "value": 8.4}]}
{"smiles": "O=C(Nc1ccc2ccncc2c1)c1ccc(-c2ccccc2)cc1", "values": [{"measurement": "pKb", "setting": "[1]", "value": 7.4}]}
{"smiles": "COc1cc(-c2ccccc2)ccc1C(=O)Nc1ccc2c(c1)N(C)CCC2", "values": [{"measurement": "pKb", "setting": "[1]", "value": "< 6.8"}]}
